Experimental data as given in ChEMBL document CHEMBL2434880, “Synthesis and assessment of catechol diether compounds as inhibitors of trypanosomal phosphodiesterase B1 (TbrPDEB1)” (Bioorg Med Chem Lett, 2013).

Target: T1, Class 1 phosphodiesterase PDEB1 (Trypanosoma brucei) (UniProt Q8WQX9)
T1 sequence (whole entry): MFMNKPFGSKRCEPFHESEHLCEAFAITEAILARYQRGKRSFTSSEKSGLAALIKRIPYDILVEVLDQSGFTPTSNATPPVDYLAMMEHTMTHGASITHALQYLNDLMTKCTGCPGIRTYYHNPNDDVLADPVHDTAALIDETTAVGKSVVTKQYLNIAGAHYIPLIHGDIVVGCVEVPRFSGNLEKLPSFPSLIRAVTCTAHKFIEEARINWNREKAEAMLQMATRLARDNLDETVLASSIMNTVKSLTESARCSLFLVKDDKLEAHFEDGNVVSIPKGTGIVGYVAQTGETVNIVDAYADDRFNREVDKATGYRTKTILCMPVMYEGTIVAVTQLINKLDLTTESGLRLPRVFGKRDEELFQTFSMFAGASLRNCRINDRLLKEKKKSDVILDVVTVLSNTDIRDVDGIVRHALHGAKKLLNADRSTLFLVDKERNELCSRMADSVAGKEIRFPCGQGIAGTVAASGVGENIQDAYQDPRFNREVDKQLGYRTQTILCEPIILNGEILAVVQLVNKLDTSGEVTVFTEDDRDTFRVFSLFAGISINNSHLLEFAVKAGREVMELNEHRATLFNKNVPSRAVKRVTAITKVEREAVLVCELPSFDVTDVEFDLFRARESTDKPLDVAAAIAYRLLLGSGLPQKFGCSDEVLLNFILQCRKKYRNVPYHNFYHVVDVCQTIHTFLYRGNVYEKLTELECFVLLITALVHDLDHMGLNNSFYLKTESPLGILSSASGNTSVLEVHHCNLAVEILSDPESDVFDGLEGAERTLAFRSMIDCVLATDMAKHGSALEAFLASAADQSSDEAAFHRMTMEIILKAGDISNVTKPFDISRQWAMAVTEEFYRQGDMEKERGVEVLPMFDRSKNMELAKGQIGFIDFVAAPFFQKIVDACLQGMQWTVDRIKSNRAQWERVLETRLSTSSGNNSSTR
Assay: Inhibition of Trypanosoma brucei recombinant PDEB1 at 10 uM by spectrophotometric analysis relative to control
`COc1ccc(-c2ccnc(NC3CCCC3)n2)cc1OC1CCCC1` gave an inhibition of 12.7%. For `COc1ccc(-c2ccnc(N(C)C)c2)cc1OC1CCCC1`, the inhibition was 34%. `COc1ccc(-c2ccc(OC)c(OC3CCCC3)c2)cn1` gave an inhibition of 7.6%. In the case of `COc1ccc(-c2ccnc(N(C)C)n2)cc1OCc1ccccc1`, the inhibition is reported as 14.5%. For `COc1ccc(-c2ccnc(NC3CCC3)n2)cc1OCc1ccccc1`, the inhibition was 16.1%. Work on `COc1ccc(-c2ccnc(NC3CCCCCC3)n2)cc1OC1CCCC1` yielded an inhibition of 20.6%. With `COc1ccc(-c2ccncc2)cc1OC1CCCC1` the inhibition was 18.7%. Work on `COc1ccc(-c2ccnc(NC3CCC3)n2)cc1OC1CCCC1` yielded an inhibition of 3.9%. For `COc1ccc(-c2ccnc(NC3CCCC3)n2)cc1OCc1ccccc1`, the inhibition was 21.8%. In the case of `COc1ccc(-c2ccnc(N(C)C)n2)cc1OC1CCCC1`, the inhibition is reported as 15.8%. In the case of `COc1ccc(-c2ccnc(NCc3ccccc3)n2)cc1OCc1ccccc1`, the inhibition is reported as 18.5%. Work on `COc1ccc(-c2ccnc(N(C)C)c2)cc1OCc1ccccc1` yielded an inhibition of 48%. Compound `COc1ccc(-c2ccnc(NC3CCCCC3)c2)cc1OCc1ccccc1` has an inhibition of 28.4%. With `COc1ccc(-c2ccnc(NC3CCCCC3)n2)cc1OC1CCCC1` the inhibition was 29.8%. For `COc1ccc(-c2ccnc(NC3CCCCCC3)n2)cc1OCc1ccccc1`, the inhibition was 22.3%. For `COc1ccc(-c2ccnc(NC3CCCCC3)n2)cc1OCc1ccccc1`, the inhibition was 23.2%. `COc1ccc(-c2ccnc(NCc3ccccc3)n2)cc1OC1CCCC1` gave an inhibition of 32.9%. For `COc1ccc(-c2ccnc(NC3CCCCC3)c2)cc1OC1CCCC1`, the inhibition was 27.1%. For `COc1ccc(-c2cccc3ncccc23)cc1OC1CCCC1`, the inhibition was 69.1%. Work on `COc1ccc(-c2ccnc(NCc3ccccc3)c2)cc1OCc1ccccc1` yielded an inhibition of 7.2%.

System: Trypanosoma brucei brucei
Assay: Antitrypanosomal activity against Trypanosoma brucei brucei
Format: functional, organism-based
In the case of `COc1ccc(C2=NN(C3CCCCCC3)C(=O)[C@H]3CC=CC[C@@H]23)cc1OCCCCOc1ccc(-c2nn[nH]n2)cc1`, the EC50 is reported as 80 nM.

Target: Phosphodiesterase 4 (Homo sapiens, UniProt P27815+Q08499+Q07343+Q08493)
Assay: Inhibition of human PDE4
Format: protein assay
`COc1ccc(C2=NN(C3CCCC3)C(=O)[C@H]3CC=CC[C@@H]23)cc1OC1CCCC1` gave an IC50 of 10 nM. `COc1ccc(C2=NN(C3CCCCCC3)C(=O)[C@H]3CC=CC[C@@H]23)cc1OCCCCOc1ccc(-c2nn[nH]n2)cc1` showed an IC50 of 0.6 nM.

System: not listed separately
Assay: Inhibition of Trypanosoma brucei PDEB2
Compound `COc1ccc(C2=NN(C3CCCC3)C(=O)[C@H]3CC=CC[C@@H]23)cc1OC1CCCC1` has an IC50 of 544 nM. In the case of `COc1ccc(C2=NN(C3CCCCCC3)C(=O)[C@H]3CC=CC[C@@H]23)cc1OCCCCOc1ccc(-c2nn[nH]n2)cc1`, the IC50 is reported as 6 nM.

Target: T2, Class 1 phosphodiesterase PDEB1 (Trypanosoma brucei, UniProt Q8WQX9)
T2 sequence (Q8WQX9 whole entry): T1 sequence (whole entry)
Assay: Inhibition of Trypanosoma brucei PDEB1
For `COc1ccc(C2=NN(C3CCCC3)C(=O)[C@H]3CC=CC[C@@H]23)cc1OC1CCCC1`, the IC50 was 278 nM.
